The source of these data is publication PMC4363635 (PLoS ONE, 2015).

The half-life is how long it takes for the measured level to halve. The Papp A→B is the apparent permeability from the apical to the basolateral side of a cell layer. A lower Papp A→B goes with slow passage. By efflux ratio is commonly meant a quotient of directional permeabilities that is used to spot active efflux. Broadly, the Papp B→A is how fast a substance crosses the layer from the basolateral side. For orientation: Papp means a coefficient for how fast a substance crosses the barrier. A high value points to fast passage.

Data set [1] can be described thus: Stability in cell medium. It counts as in vitro ADME. The settings on record: cell medium in Krebs-Henseleit buffer, 37°C. The procedure:
(§1) In vitro chemical and metabolic stability was determined in cell medium and human plasma, respectively, using previously described procedures. In brief, 100 μg of peptide was incubated in Krebs-Henseleit buffer pH 7.4 with cell medium/plasma (500 μl) at 37°C while shaking. […] The enzyme reaction was further stopped by heating the solution at 95°C for 5 minutes. Next, the samples were centrifuged to precipitate the denatured proteins and the supernatant analyzed using UPLC-PDA. Appropriate placebo solutions were similarly prepared. Assuming first-order kinetics, the rate constant k was obtained from ln(Pt/Pt0) = -kt, from which the half-life was determined as t1/2 = ln(2)/k.

The nature of data set [2]: Stability in human plasma. Type of data set: in vitro ADME. The settings on record: human plasma in Krebs-Henseleit buffer. On the procedure:
as §1

In data set [3] the test system is Caco-2 monolayer. The data set can be described thus: Caco-2 permeability assay. The settings on record: for intestinal permeability (in words): Caco-2 monolayer, 10 μM in HBSS. For orientation: Passage across Caco-2 layers is used to estimate intestinal permeability.
A short description of data set [4]: in vitro. The settings on record: human, Caco-2.
Data set [5] concerns MCF-7/AZ cells. The data set can be described thus: Collagen type I invasion assay. It counts as cell-based, human. The note with it: 24 hours post-treatment; 1 μM, 100 nM and 10 nM; positive if collagen-invasion or cell-stretching at minimum 2 consecutive concentrations; n = 3.
Protocol: Morphology changes of MCF-7/AZ cells were investigated using previously described methods [12]. […] Peptide solutions (S1 Table) (> 80% purity; all from GL Biochem, Shanghai, China) were prepared using ultrapure water and DMSO, obtaining final peptide concentrations of 1 μM (maximum 0.05% DMSO), 100 nM and 10 nM after 1:10 dilution using growth medium. […] To quantify these visual results, the number of cells containing invasive extensions were counted and compared to the total number of cells in the field.
Where [6] appears, read: Krebs-Henseleit buffer pH 7.4 with cell medium, 0, 6 and 24 hours, first-order kinetics, read-out: Cell medium half-life (converted).
[7] abbreviates: human, pH 7.4, human plasma, Krebs-Henseleit buffer pH 7.4, 37°C, 0, 30 and 120 minutes, first-order kinetics, read-out: Plasma half-life (converted).
Setting [8] is: human, pH 7.4, footnote a, human plasma, 37°C, sampled up to 120 minutes, read-out: calculated half-life in plasma.

Ends that are not written are not given here. Peptide text beside a SMILES is read from it.

As for `NC(=O)C[C@H](NC(=O)[C@H](Cc1c[nH]c2ccccc12)NC(=O)[C@@H](N)CC(N)=O)C(=O)O` [EDF-analogue, NWN] (H-Asn-Trp-Asn-OH; N-terminus and C-terminus assumed), the half-life in data set [1] (setting [6]) is 42 h; in data set [2] (setting [7]) it was 4.47 h. Further, the “efflux ratio change using the PepT1 substrate LY” value in data set [3] (10 μM peptide plus dipeptide LY (10 μM)) is “doubled”. The “intestinal permeability (in words)” value in data set [3] was “can pass the intestinal barrier”; in data set [3] (listed as NWN), “low intestinal permeability kinetics”. For the same compound, the “absorption in humans (in vivo) corresponding to in vitro Papp values” in data set [3] (in vivo-in vitro correlation studies ref 15, 33) was 5–10%. The same compound had a Papp A→B at 120 min, 10 μM in data set [4] of 0.141 ×10⁻⁶ cm/s. Moreover, in data set [4], the efflux ratio at 120 min, 10 μM is 1.1.
As for ARNQT [PhrA], the “tumour cell invasion through a type I collagen extracellular matrix (morphology scoring)” value in data set [5] is “did not induce invasive characteristics”.
Consider EKMIG [PhrG, EKMIG], for which the half-life was 160 h in data set [1] (pH 7.4, Krebs-Henseleit buffer pH 7.4 with cell medium, 0, 6 and 24 hours, first-order kinetics, read-out: Cell medium half-life (converted)); 158 h in data set [1] (pH 7.4, footnote a, sampled up to 24 hours, read-out: calculated half-life in cell medium); 13.2 h in data set [2] (setting [8]); over 13 h in data set [2] (setting [7]). Also, in data set [3], the “intestinal permeability (in words)” value was “does not show any absorption from the intestinal lumen”. In addition, the Papp A→B at 120 min, 10 μM in data set [4] was under 0.0069 ×10⁻⁶ cm/s. In data set [4], the Papp B→A at 120 min, 10 μM stood at 0.0137 ×10⁻⁶ cm/s.
For the compound EMRKSNNNFFHFLRRI [CSP], the half-life was 45.8 h in data set [1] (setting [6]); 8.73 h in data set [2] (human plasma, Krebs-Henseleit buffer pH 7.4, 37°C, 0, 30 and 120 minutes, first-order kinetics, read-out: Plasma half-life (converted)).
In the case of NNWNN [EDF, NNWNN], the half-life in data set [1] (setting [6]) is 16.2 h; in data set [2] (setting [8]) it was 13.2 h; in data set [2] (setting [7]) it was over 13 h. For the same compound, in data set [3], the “intestinal permeability (in words)” value is “impermeable”. Also, the Papp at 120 min, 10 μM in data set [4] is under 0.0029 ×10⁻⁶ cm/s.
